For 26 compounds, TGI and GI50 results are on record in PubChem BioAssay (NCI).

“And” between values parts separate entries of the source, which are not always exact repeats. Equal values may be shown once.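 Five concentrations, 48 hours, 96-well plates. GI50: concentration for 50% inhibition of growth. TGI is the concentration that stops growth completely.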

Assay in all cases: inhibition of tumour cell growth, NCI panel, 48 h
The subject of experiment [1] is CCRF-CEM leukemia.
For experiment [2], the system named is HCC-2998 colon.
The subject of experiment [3] is HCT-116 colon.
In experiment [4] the test system is IGROV1 ovarian.
The subject of experiment [5] is M14 melanoma.
The test system of experiment [6] is SK-MEL-2 melanoma.
Experiment [7] concerns SK-MEL-5 melanoma.
The subject of experiment [8] is SN12C renal.
The test system of experiment [9] is UO-31 renal.
Experiment [10] relates to HS 578T breast.

Take `N#CC(/C(=N/NC(=O)C(=O)NN)C(=O)Nc1nc([N+](=O)[O-])cs1)c1ccc(Cl)cc1` (configuration not stated): the TGI in [1], in experiment [2], in experiment [3], in experiment [4], in [5] and in [6] was > 100 µM each time. Further, the TGI in [7], in experiment [8] and in experiment [9] was > 100 µM throughout.
Take `CCC1C(=O)OCc2c1cc1n(c2=O)Cc2cc3ccccc3nc2-1` (configuration not stated): the TGI was > 100 µM in experiment [2]; > 100 µM in experiment [3]; > 100 µM in experiment [10]; > 100 µM in experiment [4]; 13.7 µM in experiment [5]; > 100 µM in experiment [6]. For the same compound, the TGI in experiment [7] is 32.1 µM; in [8], > 100 µM; in [9], 11.7 µM.
Turning to `COc1ccc2c(c1O)C13CCN(C)C(C2)C1CCC1(C3)OCCO1` (configuration not stated), the TGI in experiment [2], in experiment [3], in [10], in [4], in experiment [5] and in [6] was > 100 µM throughout. For the same compound, the TGI in experiment [7], in [8] and in experiment [9] was > 100 µM each time.
As for `CC(=O)Oc1cc(C)c2c(c1OC(C)=O)CC1(O2)[C@@H](C)CCC2[C@@]3(C)CC[C@H](OC(C)=O)C(C)(C)C3CC[C@]21C` (some centres not stated), the TGI in experiment [2] was found to be 19.2 µM; in experiment [3] it was 13.3 µM; in experiment [4], 4.49 µM; in [5] it was 18.7 µM; in experiment [7], 10.7 µM; in experiment [8], 11.8 µM. This compound also had a TGI in experiment [9] of 3.93 µM.
As for `COC(c1cccc(C(O)(C(F)(F)F)C(F)(F)F)c1)(C(F)(F)F)C(F)(F)F`, the TGI in experiment [2] was found to be 21.7 µM; in [3], 31 µM; in [4], 35.3 µM; in experiment [5] it was 34 µM; in [6], 33.7 µM; in [8], 32.2 µM. The compound further gave a TGI in experiment [9] of 34.2 µM.
Regarding `Nc1nc(N)c(Cn2ccnc2)c(=O)[nH]1`, the TGI in experiment [3], in experiment [10], in experiment [4], in experiment [5], in experiment [6] and in experiment [7] was > 100 µM throughout. Moreover, the TGI in experiment [8] and in experiment [9] was > 100 µM throughout.
Turning to `CSc1cccc(-n2c3nc(=O)n(C)c(=O)c-3nc3ccccc32)c1`, the TGI in experiment [1] amounted to 42.7 µM; in experiment [2], 16.5 µM; in experiment [4], 36 µM; in experiment [5], 9.79 µM; in [6], 31.1 µM; in experiment [7], 3.02 µM. Besides, the values for the TGI in [8] and in experiment [9] were 17.9 µM and 32.9 µM, respectively.
In the case of `c1ccc2c(c1)sc1c3cnccc3ccc21`, the TGI in experiment [2], in [3], in experiment [10], in experiment [4], in [5] and in experiment [6] was > 100 µM each time. Further, the TGI in experiment [7], in [8] and in experiment [9] was > 100 µM in each case.
Turning to `CC(=O)O[C@@]12CO[C@@H]1C[C@H](O)[C@@]1(C)C(=O)[C@H](O)C3=C(C)[C@@H](OC(=O)[C@H](O)[C@@H](NC(=O)OC(C)(C)C)c4ccccc4)C[C@@](O)([C@@H](OC(=O)c4ccccc4)[C@H]21)C3(C)C`, the GI50 in [1] was 0.0286 µM and 0.0159 µM; in [2], 0.0182 µM; in [3], 0.00203 µM; in [4], 0.0593 µM and 0.0198 µM; in [5], 0.0154 µM and 0.0205 µM; in experiment [6], 0.0269 µM. Besides, the GI50 in [7] is 0.0133 µM and 0.00609 µM; in experiment [8], 0.0224 µM and 0.00869 µM; in experiment [9], 0.247 µM. In addition, the TGI in experiment [1] was > 73.6 µM; in [3], > 100 µM; in experiment [4] it was > 79 µM; in experiment [5], 0.281 µM; in [7], 17.1 µM; in [8], > 68.3 µM. Also, in [9], the TGI was 18 µM.
In the case of `CCCCCCCC(=O)NCC(O)CNC(=O)CCCCCCC`, the TGI in experiment [1], in experiment [2], in experiment [3], in experiment [4], in [5] and in experiment [7] was > 100 µM in each case. In addition, the TGI in experiment [8] and in experiment [9] was > 100 µM throughout.
For the compound `COc1cc2c(cc1O)-c1c(cnn1-c1ccc([N+](=O)[O-])cc1)CCC2`, the TGI in experiment [1] worked out at 30.6 µM; in experiment [3], 71.4 µM; in experiment [10] it was 81.8 µM; in experiment [4] it was 18.7 µM; in experiment [5], 49.6 µM; in experiment [6], 37.4 µM. For the same compound, the values for the TGI in experiment [7] and in [8] were 26.2 µM and 14.7 µM, respectively.
Take `C#CCN(Cc1nc2cc(C(F)(F)F)ccc2nc1-c1ccccc1)c1ccc(OC(F)(F)F)cc1`: the GI50 in experiment [2] was 30.3 µM; in experiment [3] it was 25 µM; in [10], > 100 µM; in experiment [4], 34.8 µM; in [5], 50.3 µM; in experiment [6], > 100 µM. Further, the GI50 in experiment [7] is 34 µM; in experiment [8] it was 38.2 µM; in [9], 50.7 µM. In addition, the TGI in experiment [2] was 91.9 µM; in [3], > 100 µM; in [10] it was > 100 µM; in experiment [4], > 100 µM; in [5], > 100 µM; in experiment [6], > 100 µM. For the same compound, the TGI in experiment [7], in experiment [8] and in experiment [9] was > 100 µM in each case.
Take `C/C=C/C1=C(Cl)C(=O)[C@@H](Cl)[C@@]1(O)C(=O)OC`: the TGI was > 24 µM in experiment [1]; 8.84 µM in experiment [2]; 11.7 µM in experiment [3]; 14.1 µM in [4]; 11.9 µM in [5]; 7.56 µM in experiment [6]. In addition, the results for the TGI in experiment [7], in [8] and in experiment [9] were 16.5 µM, 7.15 µM and 10.2 µM, respectively.
For `O=c1cc(-c2ccccc2)oc2cc(O)c(O)c(O)c12`, the GI50 in experiment [1] is 2.39 µM; in experiment [2], 15 µM; in experiment [3], 11.1 µM; in [5], 22.9 µM; in experiment [6], 53.9 µM; in experiment [7], 9.47 µM. In addition, the GI50 in experiment [8] was 8.8 µM; in [9] it was 13.9 µM. Also, the TGI was > 100 µM in experiment [1]; 37.9 µM in experiment [2]; 31.8 µM in experiment [3]; 92.2 µM in [5]; > 100 µM in [6]; 45.3 µM in experiment [7]. Moreover, the TGI was 26 µM in experiment [8] and > 100 µM in experiment [9].
For `Nc1nc2sc3ccccc3c(=O)n2n1`, the TGI in [1], in experiment [2], in [3], in experiment [4], in experiment [5] and in experiment [6] was > 100 µM throughout. The TGI in experiment [7], in experiment [8] and in experiment [9] was > 100 µM in each case.
For the compound `CCN(CC)CCCn1cnc2ncccc2c1=O`, the TGI in experiment [1], in [3], in experiment [4], in experiment [5], in experiment [6] and in experiment [7] was > 100 µM in each case. The TGI in experiment [8] and in [9] was > 100 µM each time.
In the case of `CC(=O)N1c2ccccc2C2=CC3C4C(=O)N(c5ccccc5)C(=O)C4C21C1C(=O)N(c2ccccc2)C(=O)C31` (configuration not stated), the TGI in experiment [1] was > 100 µM; in experiment [2] it was > 100 µM; in [3], > 100 µM; in experiment [4] it was > 100 µM; in experiment [6] it was 56.2 µM; in experiment [8] it was > 100 µM. For the same compound, the TGI in [9] is > 100 µM.
For `CC1=C(/C=C/C(=O)O)C(C)(C)CCC1`, the TGI in experiment [2], in [3], in experiment [10], in experiment [4], in [5] and in experiment [6] was > 100 µM throughout. Further, the TGI in [7], in experiment [8] and in [9] was > 100 µM each time.
With `Cc1noc2cccc(OCc3ccccc3)c12`, the TGI was > 100 µM in experiment [1]; > 100 µM in [3]; > 100 µM in experiment [4]; > 100 µM in experiment [5]; 94.5 µM in experiment [6]; 41.5 µM in [7]. The TGI in experiment [8] and in experiment [9] was > 100 µM throughout.
With `COc1ccc2c(c1)C(=O)N1CCOC1C2C(=O)O` (configuration not stated), the TGI in experiment [1], in experiment [2], in [3], in experiment [4], in [5] and in experiment [7] was > 100 µM in each case. The TGI in experiment [8] and in experiment [9] was > 100 µM each time.
In the case of `Cc1nc(-c2ccccc2)c(Cc2ccccc2O)c(=O)[nH]1`, the TGI in [1], in [3], in [10], in [4], in experiment [5] and in [6] was > 100 µM each time. For the same compound, the TGI in [7], in experiment [8] and in experiment [9] was > 100 µM in each case.
As to `O=C(O)C1=CCCc2ccc3ccccc3c21`, the TGI in experiment [3], in experiment [4], in [5], in experiment [6], in experiment [8] and in [9] was > 100 µM throughout.
With `[Cl][Sn]([Cl])([c]1ccccc1)[c]1ccccc1`, the GI50 is 1.74 µM in experiment [1]; 15 µM in experiment [2]; 19.3 µM in experiment [4]; 15.3 µM in experiment [5]; 4 µM in experiment [6]; 12.2 µM in experiment [7]. Also, the values for the GI50 in experiment [8] and in [9] were 14.9 µM and 19.4 µM, respectively. In addition, the TGI was 5.76 µM in experiment [1]; 28.5 µM in experiment [2]; 38.3 µM in experiment [4]; 29 µM in experiment [5]; 14.1 µM in experiment [6]; 26.9 µM in [7]. Moreover, the TGI in experiment [8] is 28.2 µM; in experiment [9], 33.5 µM.
Consider `O=C1c2cccnc2C(=O)C2C3C=CC(C3)C12` (configuration not stated), for which the TGI in experiment [2] is 29.9 µM; in experiment [3], 14 µM; in [10], 85.1 µM; in experiment [4] it was 24 µM; in experiment [5], 28 µM; in experiment [6], 16.9 µM. The TGI in experiment [7] was 23.2 µM; in experiment [8] it was 29.2 µM; in experiment [9], 28.1 µM.
With `CCOC(=O)c1sc2ncn(Cc3cccc(Br)c3)c(=O)c2c1C`, the GI50 was 66.8 µM in experiment [2]; 30.7 µM in [3]; 38.6 µM in [10]; 0.172 µM in [4]; 20.9 µM in experiment [5]; 17.7 µM in [6]. Also, the GI50 in [7] was 25.7 µM; in experiment [8], 11.7 µM; in experiment [9], 34.2 µM. The TGI in experiment [2] was > 100 µM; in experiment [3], 93.8 µM; in [10] it was > 100 µM; in experiment [4], > 100 µM; in experiment [5], 53.8 µM; in experiment [6] it was 81 µM. Further, the TGI in [7] is 96 µM; in experiment [8], 47.3 µM; in experiment [9] it was > 100 µM.
For the compound `CCOC(=O)c1c(-c2ccccc2)oc(-c2ccccc2)c1C(=O)OCC`, the TGI in experiment [1], in experiment [2], in [3], in experiment [4], in [5] and in experiment [6] was > 100 µM throughout. For the same compound, the TGI in experiment [7], in experiment [8] and in [9] was > 100 µM each time.
